Measured values as given in the supplement of paper PMC4380931.

Columns and labels:
C32 [1] = test: relative viability (cell count relative to DMSO-treated control) (fraction of DMSO control); higher = more viable cells / less drug effect
Description: (§1)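 BRAF V600E/D melanoma cell lines were seeded in 96-well plates, treated in 4 replicates with seven doses (3.16 nM to 3.16 uM) of RAF/MEK inhibitors for 24, 48 or 72 h, and stained with Hoechst 33342 (nuclei) and DEVD-NucView488 caspase-3 substrate. Plates were imaged on an Operetta. Relative viability is the cell count normalised to a DMSO-treated control; apoptosis fraction is the fraction of NucView488-positive nuclei.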

SKMEL28 = test: as above
Description: as §1

COLO858 [2] = test: as above
Description: as §1

MMACSF = test: apoptotic fraction of cells (caspase-3 NucView488 positive); higher = more apoptosis
Description: as §1

C32 [3] = test: as above
Description: as §1

COLO858 [4] = test: as above
Description: as §1

CCCS(=O)(=O)Nc1ccc(F)c(C(=O)c2c[nH]c3ncc(-c4ccc(Cl)cc4)cc23)c1F [Vemurafenib]
Details	apoptotic fraction of cells, C32 [3]	apoptotic fraction of cells, COLO858 [4]	apoptotic fraction of cells, MMACSF	relative viability, C32 [1]	relative viability, COLO858 [2]	relative viability, SKMEL28
24 h, 0.00316 µM	0.0798	0.0468	0.0413	0.987	0.782	–
24 h, 0.01 µM	0.139	0.0448	0.0384	0.995	1.02	–
24 h, 0.0316 µM	0.166	0.0467	0.0409	1.03	1.05	–
24 h, 0.1 µM	0.186	0.0418	0.0412	0.985	0.988	–
24 h, 0.316 µM	0.202	0.0538	0.0459	0.997	0.916	–
24 h, 1 µM	0.17	0.0998	0.0484	0.927	0.824	–
24 h, 3.16 µM	0.309	0.151	0.0553	0.637	0.703	–
48 h, 0.00316 µM	0.11	0.0487	0.0481	1.07	0.926	0.828
48 h, 0.01 µM	0.173	0.0502	0.0447	0.901	1.02	1.18
48 h, 0.0316 µM	0.186	0.048	0.0414	0.891	1	1.18
48 h, 0.1 µM	0.127	0.0491	0.0439	0.96	0.933	1.07
48 h, 0.316 µM	0.0971	0.0797	0.0499	0.988	0.574	0.973
48 h, 1 µM	0.407	0.194	0.0573	0.551	0.362	0.71
48 h, 3.16 µM	0.862	0.453	0.122	0.102	0.215	0.542
72 h, 0.00316 µM	0.0761	0.0879	0.0401	1.04	1.21	0.955
72 h, 0.01 µM	0.0907	0.0831	0.0441	1.07	1.18	0.88
72 h, 0.0316 µM	0.0843	0.0746	0.0407	1.02	1.31	0.947
72 h, 0.1 µM	0.061	0.0587	0.0382	0.875	1.15	0.922
72 h, 0.316 µM	0.114	0.0687	0.0493	0.684	0.68	0.651
72 h, 1 µM	0.658	0.25	0.265	0.162	0.393	0.491
72 h, 3.16 µM	0.928	0.723	0.692	0.0274	0.127	0.39

Cc1ccc(NC(=O)c2cccc(C(C)(C)C#N)c2)cc1Nc1ccc2ncn(C)c(=O)c2c1 [AZ628]
Details	apoptotic fraction of cells, C32 [3]	apoptotic fraction of cells, COLO858 [4]	apoptotic fraction of cells, MMACSF	relative viability, C32 [1]	relative viability, COLO858 [2]	relative viability, SKMEL28
24 h, 0.00316 µM	0.0886	0.0485	0.0452	1.09	0.923	–
24 h, 0.01 µM	0.128	0.0403	0.0505	1.12	1.12	–
24 h, 0.0316 µM	0.177	0.0435	0.0425	1.05	1.16	–
24 h, 0.1 µM	0.226	0.0728	0.0308	1.02	0.982	–
24 h, 0.316 µM	0.28	0.105	0.0456	0.87	0.938	–
24 h, 1 µM	0.338	0.136	0.0524	0.757	0.902	–
24 h, 3.16 µM	0.24	0.171	0.0606	0.877	0.816	–
48 h, 0.00316 µM	0.0865	0.0518	0.0483	1.17	0.965	0.879
48 h, 0.01 µM	0.103	0.0435	0.0434	1.14	1.08	1.4
48 h, 0.0316 µM	0.0851	0.0477	0.0445	1.01	0.778	1.44
48 h, 0.1 µM	0.213	0.12	0.0497	0.793	0.48	1.16
48 h, 0.316 µM	0.509	0.221	0.0653	0.428	0.368	0.947
48 h, 1 µM	0.847	0.296	0.159	0.109	0.319	0.896
48 h, 3.16 µM	0.9051	0.436	0.25	0.0749	0.248	0.614
72 h, 0.00316 µM	0.0829	0.0847	0.0431	0.992	1.05	1.13
72 h, 0.01 µM	0.0581	0.0691	0.0411	1.1	1.13	1.01
72 h, 0.0316 µM	0.0379	0.0679	0.0335	0.947	0.716	0.791
72 h, 0.1 µM	0.301	0.109	0.083	0.45	0.475	0.526
72 h, 0.316 µM	0.676	0.225	0.226	0.163	0.392	0.507
72 h, 1 µM	0.886	0.381	0.465	0.059	0.307	0.489
72 h, 3.16 µM	0.941	0.534	0.62	0.0269	0.213	0.442

CN(C)CCOc1ccc(-c2nc(-c3ccncc3)c(-c3ccc4c(c3)CC/C4=N\O)[nH]2)cc1
Details	apoptotic fraction of cells, C32 [3]	apoptotic fraction of cells, COLO858 [4]	apoptotic fraction of cells, MMACSF	relative viability, C32 [1]	relative viability, COLO858 [2]	relative viability, SKMEL28
24 h, 0.00316 µM	0.0901	0.0451	0.0448	1.07	0.866	–
24 h, 0.01 µM	0.138	0.0421	0.0421	1.05	1.21	–
24 h, 0.0316 µM	0.159	0.0423	0.0446	1.09	1.2	–
24 h, 0.1 µM	0.194	0.0572	0.0491	1.05	1	–
24 h, 0.316 µM	0.225	0.0792	0.0475	0.971	0.946	–
24 h, 1 µM	0.24	0.123	0.048	0.842	0.883	–
24 h, 3.16 µM	0.271	0.13	0.0414	0.779	0.811	–
48 h, 0.00316 µM	0.0832	0.0512	0.0482	1.2	0.963	0.835
48 h, 0.01 µM	0.121	0.0508	0.0408	1.04	1.03	1.45
48 h, 0.0316 µM	0.0893	0.0484	0.041	1.03	0.929	1.59
48 h, 0.1 µM	0.077	0.0742	0.0486	1.06	0.584	1.29
48 h, 0.316 µM	0.189	0.153	0.0567	0.858	0.431	1.1
48 h, 1 µM	0.38	0.237	0.0889	0.551	0.341	0.906
48 h, 3.16 µM	0.524	0.341	0.0951	0.4	0.277	0.643
72 h, 0.00316 µM	0.0657	0.0855	0.0417	1.1	1.07	1.08
72 h, 0.01 µM	0.0532	0.0692	0.0427	1.19	1.21	0.92
72 h, 0.0316 µM	0.0299	0.0676	0.0345	1.08	0.906	0.897
72 h, 0.1 µM	0.0807	0.077	0.0358	0.762	0.605	0.734
72 h, 0.316 µM	0.274	0.141	0.0666	0.436	0.494	0.542
72 h, 1 µM	0.474	0.268	0.155	0.276	0.381	0.544
72 h, 3.16 µM	0.542	0.424	0.224	0.209	0.29	0.373
